The source of these data is US12275927B2, “Microbial contamination control in bioprocessing” (The Regents of the University of California, priority 2019, dated 2025).

A word on the IC50: it is the point on the concentration scale where inhibition reaches its midpoint.

In test [1] the test system is RFP-expressing E. coli, OW94. As to conditions: read-out: chlorite IC50; OW94 negative control, growth (OD600) 24 hours at 37° C., MRM medium. How it is done:
(§1) 100 μL of water was added to the negative control wells. The plate was then placed in a shaker and cultivated overnight at 37° C., 250 rpm. IC50 were determined 24 hours after inoculation by measuring OD600.

Test [2] relates to cCld expressing strain OW116. As to the method: as §1
The next test concerns parental LMG194. The following applies: read-out: chlorite IC50; LMG194, growth (OD600) 24 hours at 37° C., MRM medium. How it is done:
as §1

The next test has as its system wtCld-expressing OW95. How it is done:
as §1

The test system of test [3] is chlorite hyper-resistant strain OW105. The following applies: MRM medium. As to the method: as §1
OW95 cells were revived from freezer stocks, transferred into liquid MRM medium, and induced for Cld expression as described above.

The next test has as its system OW116. As to the method: (§2) A 2 L round-bottom autoclavable laboratory fermenter (BiOENGiNEERiNG), was operated as an iso-volumetric chemostat with 1 L of MRM medium in the bioreactor vessel. Temperature, dissolved oxygen (dO), and pH were monitored during the course of the experiments. Temperature was set and maintained at 37° C. pH was set to 7.2 and adjusted automatically based on the real time pH value with 1M NaOH or 1M HCl. dO was set to 20% of the maximal dO value at 37° C. with constant air flow of 2 L/min. Constant dO was maintained by automatic agitation speed adjustment based on the real-time dO value. Agitation speed varied between 200-700 RPM, depending on oxygen demand. Two separate pumps were used to control medium inflow and waste outflow rates.
(§3) The chemostat at first operated as a batch culture (dilution rate equal to 0), until the culture reached mid-log phase (OD600 of ˜0.7-1.0), then dilution rate was set to be approximately equal to the cell growth rate. This allowed the bioreactor to achieve a zero net growth while maintaining a near-maximum specific growth rate. […] All growth data were plotted and calculated using the Prism 7 software.

The subject of the next test is OW94. How it is done:
as §2, §3

For test [4], the system named is C. crescentus phage CR-30. As to conditions: incubated with chlorite at 30 C. How it is done:
(§4) Influent wastewater samples were collected from the East Bay Municipal Utility District's wastewater treatment plant in Oakland, CA, and filtered through […] filters to remove debris and microbes. To make a phage enrichment culture, 5 mL of filtered wastewater was mixed with 5 mL of 2× LB medium and inoculated with 100 μL of stationary E. coli cells, incubated for 48 hours at 37° C., 50 RPM. Next, a sterile cotton swab was dipped into an overnight E. coli culture, smeared on an LB agar plate, and 10 μL of the phage enrichment culture was then spotted on the plate. The plate was incubated overnight at 37° C. […] Phage particles from the clear zone were picked into the phage buffer (10 mM Tris, 1 mM CaCl2 10 mM MgCl2, 68 mM NaCl, pH 7.5, adapted from the Phage Hunting Program, University of Pittsburgh), followed by dilution to extinction and plating to obtain single plaques with pure phage cultures. Phage cultures were maintained at 4° C. in the phage buffer. […] Samples were taken at designated time points and mixed with PYE (0.3%) agar and log phase (OD660 0.1-04) C. crescentus culture before plating on PYE plates. Plaque forming unites were counted after 24 hours.

The subject of the next test is E. coli lytic phages. The following applies: 4 mM chlorite, 37° C. How it is done: as §4
A further test deals with SCW enrichment culture. As to conditions: 4 mM chlorite, OW117 bioreactor, SCW enrichment added. How it is done:
as §2

The test system of test [5] is contaminants from Strawberry Creek water. As to conditions: 10 mM chlorite spiked, reactor contaminated with 1% (v/v) creek water, OW115. As to the method: as §2
Test [6] relates to SCW enrichment culture, OW117 and OW118. The following applies: SCW enrichment vs OW117 vs OW118.
From the text: as §3

A further test concerns Azospira suillum PS. The following applies: 40 μM chlorite, unpublished observations.
Test [7] concerns cld deletion (Acid) mutant. The following applies: 40 μM chlorite, unpublished observations.
The mark [8] stands for this setting: 4 mM chlorite spiked into chemostat at equilibrium growth, 37° C.
Setting [9] is: batch cultures, different chlorite concentrations.

As for Sodium chlorite, the IC50 is 560 µM in [1]; 8940 µM in test [2] (read-out: chlorite IC50, OW116, growth (OD600) 24 hours at 37° C., MRM medium); 300 µM in the test on parental LMG194; 1740 µM in the test with wtCld-expressing OW95 (read-out: chlorite IC50, OW95, Cld induced at 26° C., growth (OD600) 24 hours at 37° C., MRM medium); 4600 µM in test [3] (read-out: chlorite IC50, OW105, growth (OD600) 24 hours at 37° C.). The “chlorite resistance of cCld relative to wtCld” value in test [2] (cCld vs wtCld) is 5 fold. In addition, the “increase in chlorite resistance compared to negative controls” value in the test on wtCld-expressing OW95 (OW95 vs OW94 and LMG194) is on record as “three-fold increase”. Besides, the “chlorite concentration in which the strain was able to grow, reaching a similar final OD600 as without chlorite control” value in test [3] (end of directed evolution, 37° C.) is on record as 8 mM. In addition, the entries for the “specific growth rate after the chlorite spike” value in the test on OW116 (setting [8]) and with OW94 (setting [8]) were 0.64 ± 0.10 h⁻¹ and 0.01 ± 0.07 h⁻¹, respectively. Besides, the “reduction of specific growth rate after the chlorite spike” value in the test on OW116 (4 mM chlorite, chemostat, vs before spike) was roughly 20%. Further, the “specific growth rate in batch culture as chlorite concentration increased” value in the test with OW116 (setting [9]) is “only reduced slightly”; with OW94 (setting [9]) it was “drastically decreased”. The phage inactivation entry (in [4]; in the test with E. coli lytic phages) was “chlorite-induced phage inactivation” throughout. In the test on SCW enrichment culture, the “indigo production after addition of contaminants” value is reported as “indigo was steadily produced until the end of the experiment”. In [5], the “effect of chlorite spike on the contaminated bioreactor” value is “contaminants were inhibited and washed out”. The “batch growth in medium with chlorite” value in test [6] was “only OW118 could endure medium with chlorite”. Further, the entries for the “aerobic growth in the presence of chlorite” value (with Azospira suillum PS; in test [7]) were “grew aerobically” and “failed to grow”, respectively.
